In ChEMBL document CHEMBL1201862, “PubChem BioAssay data set” (2004):
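These data come from cells grown in 96-well plates and exposed to compound for 48 hours at five concentrations. Here, GI50 denotes the concentration required for 50% inhibition of growth.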 Active and inactive are the calls of the source. Rule as the data show it: active = GI50 up to about 1.1 µM and inactive = higher.

Columns and labels:
Test in all cases: DTP human tumour cell line panel, 48 h
M19-MEL = tested on: M19-MEL
SNB-78 = tested on: SNB-78
OVCAR-4 = tested on: OVCAR-4
MOLT-4 = tested on: MOLT-4
NCI/ADR-RES = tested on: NCI/ADR-RES
A498 = tested on: A498
COLO 205 = tested on: COLO 205
HOP-18 = tested on: HOP-18
UO-31 = tested on: UO-31
DMS-273 = tested on: DMS-273
HCT-15 = tested on: HCT-15
DMS-114 = tested on: DMS-114
OVCAR-3 = tested on: OVCAR-3
NCI-H522 = tested on: NCI-H522
SF-539 = tested on: SF-539
SNB-75 = tested on: SNB-75
M14 = tested on: M14
LXFL 529 = tested on: LXFL 529
SR = tested on: SR

SMILES | GI50 (M19-MEL) | GI50 (SNB-78) | GI50 (OVCAR-4) | GI50 (MOLT-4) | GI50 (NCI/ADR-RES) | GI50 (A498) | GI50 (COLO 205) | GI50 (HOP-18) | GI50 (UO-31) | GI50 (DMS-273) | GI50 (HCT-15) [µM] | GI50 (DMS-114) | GI50 (OVCAR-3) | GI50 (NCI-H522) | GI50 (SF-539) | GI50 (SNB-75) | GI50 (M14) | GI50 (LXFL 529) | GI50 (SR)
CCCSCC(P(=O)(O)O)P(=O)(O)O.NC1CCCCC1 | > 100 µM (inactive) | > 100 µM (inactive) | > 100 µM (inactive) | > 100 µM (inactive) | > 100 µM (inactive) | 8.59 µM (inactive) | > 100 µM (inactive) | > 100 µM (inactive) | > 100 µM (inactive) | > 100 µM (inactive) | > 100 | > 100 µM (inactive) | 55.7 µM (inactive) | > 100 µM (inactive) | > 100 µM (inactive) | > 100 µM (inactive) | – | – | –
CCC1(O)C[C@H]2CN(CCCc3c([nH]c4ccccc34)[C@@](C(=O)OC)(c3cc4c(cc3OC)N(C)C3[C@](O)(C(=O)OC)[C@H](OC(C)=O)[C@]5(CC)C=CCN6CC[C@]43[C@H]65)C2)C1 (some centres undefined) | 0.902 µM (active) | 0.543 µM (active) | 0.353 µM (active) | 0.586 µM (active) | – | 1.21 µM (inactive) | 0.593 µM (active) | 0.146 µM (active) | 4.38 µM (inactive) | 0.406 µM (active) | 2.99 | – | 0.281 µM (active) | 0.194 µM (active) | 0.991 µM (active) | 1.35 µM (inactive) | 0.726 µM (active) | 0.581 µM (active) | –
COC1/C=C\C=C(/C)C(=O)NC2=CC(=O)C=C(C2=O)C(OC)C(C)CC(OC)C(OC)C(C)/C=C(/C)C1OC(N)=O (centres undefined) | 2.2 µM (inactive) | 2.14 µM (inactive) | 8.26 µM (inactive) | 0.214 µM (active) | 5.73 µM (inactive) | 15.1 µM (inactive) | 0.084 µM (active) | 0.29 µM (active) | 16.4 µM (inactive) | 12 µM (inactive) | 3.38 | 1.12 µM (inactive) | 1.49 µM (inactive) | 0.231 µM (active) | 8.09 µM (inactive) | 17.3 µM (inactive) | – | – | –
COc1ccc(C2C3CCCC(C3=O)C(c3ccc(OC)cc3)N2N=O)cc1 (centres undefined) | 32.4 µM (inactive) | > 66.4 µM (inactive) | 21.7 µM (inactive) | 25.2 µM (inactive) | 32.4 µM (inactive) | 15.2 µM (inactive) | 20.1 µM (inactive) | 8.91 µM (inactive) | 56.1 µM (inactive) | 23 µM (inactive) | 36.9 | 23.1 µM (inactive) | 6.71 µM (inactive) | 17.1 µM (inactive) | > 10 µM (inactive) | 26.5 µM (inactive) | – | – | –
CC(C)c1cccc(C(C)C)c1NC(=O)C(=O)C1CCC2=C(Sc3ccccc3N2)C1=O (centres undefined) | > 100 µM (inactive) | > 100 µM (inactive) | 95.9 µM (inactive) | 43.7 µM (inactive) | – | > 100 µM (inactive) | 24.4 µM (inactive) | > 100 µM (inactive) | > 100 µM (inactive) | 40.5 µM (inactive) | 61.7 | 52.8 µM (inactive) | > 100 µM (inactive) | – | 31.3 µM (inactive) | 32.3 µM (inactive) | > 100 µM (inactive) | 44.2 µM (inactive) | > 100 µM (inactive)
CO[C@@]12[C@H](COC(N)=O)C3=C(C(=O)C(C)=C(N)C3=O)N1C[C@@H]1N[C@@H]12 [MITOMYCIN] | – | – | 3.56 µM (inactive) | 0.23 µM (active) | 4.74 µM (inactive) | 0.714 µM (active) | 1.02 µM (active) | 1.1 µM (active) | 1.87 µM (inactive) | 0.104 µM (active) | 1.29 | – | 3.07 µM (inactive) | 0.667 µM (active) | – | – | – | 2.55 µM (inactive) | 0.122 µM (active)
OCC12C=CC(C1)c1ccccc12 (centres undefined) | > 100 µM (inactive) | – | > 100 µM (inactive) | > 100 µM (inactive) | – | > 100 µM (inactive) | > 100 µM (inactive) | > 100 µM (inactive) | > 100 µM (inactive) | > 100 µM (inactive) | > 100 | > 100 µM (inactive) | > 100 µM (inactive) | – | – | – | > 100 µM (inactive) | > 100 µM (inactive) | > 100 µM (inactive)
C=CCCC(=O)CC(=O)OCc1ccccc1 | > 100 µM (inactive) | > 100 µM (inactive) | > 100 µM (inactive) | > 100 µM (inactive) | – | > 100 µM (inactive) | > 100 µM (inactive) | > 100 µM (inactive) | > 100 µM (inactive) | > 100 µM (inactive) | > 100 | > 100 µM (inactive) | > 100 µM (inactive) | – | > 100 µM (inactive) | 99.3 µM (inactive) | > 100 µM (inactive) | > 100 µM (inactive) | –
